How the values were obtained:
Assay type in all cases: cell-based, mouse
[1] = test system: α7 integrin (LacZ reporter in α7+/LacZ myotubes); assay: Myotube α7 integrin FDG assay (Burkin assay in myotubes, 96-well); conditions: SU9516 analogs, 96-well, N=3-6
[2] = test system: β-galactosidase in CMV-LacZ C2C12 myoblasts; assay: CMV-LacZ secondary screen in C2C12 myoblasts (β-Gal stabilizing assay); conditions: SU9516 analogs, C2C12 CMV-LacZ, N=2
Outline: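 Dose-response runs at 0.5–40 μM (0.5, 1, 5, 10, 20, 40 μM; N=2 per point) used a clonal C2C12 line carrying CMV-LacZ. Cells were assayed as myoblasts or as differentiated myotubes, and β-galactosidase levels were read with the FDG fluorogenic substrate.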

[3] = test system: α7 integrin (LacZ reporter in α7βgal+/− myoblasts); assay: Myoblast α7+/LacZ integrin FDG assay (Burkin assay in myoblasts, 96-well); conditions: SU9516 analogs, 96-well, N=3-6
[4] = test system: β-galactosidase in CMV-LacZ C2C12 myotubes; assay: CMV-LacZ secondary screen in C2C12 myotubes (β-Gal stabilizing assay); conditions: SU9516 analogs, C2C12 CMV-LacZ, N=2
Outline: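 β-gal stabilization was measured in C2C12 myoblasts or myotubes stably transfected with a CMV-driven LacZ construct, using the FDG β-gal assay. Compounds were tested in dose-response at 0.5, 1, 5, 10, 20 and 40 μM, with two replicates per point.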

| Compound | Burkin Assay in Myotubes, value relative to DMSO ([1]; 0.5 uM) | Burkin Assay in Myotubes, value relative to DMSO ([1]; 1 uM) | Burkin Assay in Myotubes, value relative to DMSO ([1]; 5 uM) | Burkin Assay in Myotubes, value relative to DMSO ([1]; 10 uM) | Burkin Assay in Myotubes, value relative to DMSO ([1]; 20 uM) | Burkin Assay in Myotubes, value relative to DMSO ([1]; 40 uM) | CMV-LACZ in Myoblasts, value relative to DMSO ([2]; 0.5 uM) | CMV-LACZ in Myoblasts, value relative to DMSO ([2]; 5 uM) | CMV-LACZ in Myoblasts, value relative to DMSO ([2]; 10 uM) | CMV-LACZ in Myoblasts, value relative to DMSO ([2]; 20 uM) | CMV-LACZ in Myoblasts, value relative to DMSO ([2]; 40 uM) | Burkin Assay in Myoblasts, value relative to DMSO ([3]; 0.5 uM) | Burkin Assay in Myoblasts, value relative to DMSO ([3]; 1 uM) | Burkin Assay in Myoblasts, value relative to DMSO ([3]; 5 uM) | Burkin Assay in Myoblasts, value relative to DMSO ([3]; 10 uM) | Burkin Assay in Myoblasts, value relative to DMSO ([3]; 20 uM) | Burkin Assay in Myoblasts, value relative to DMSO ([3]; 40 uM) | CMV-LACZ in Myotubes, value relative to DMSO ([4]; 0.5 uM) | CMV-LACZ in Myotubes, value relative to DMSO ([4]; 1 uM) | CMV-LACZ in Myotubes, value relative to DMSO ([4]; 5 uM) | other results |
| --- | --- | --- | --- | --- | --- | --- | --- | --- | --- | --- | --- | --- | --- | --- | --- | --- | --- | --- | --- | --- | --- |
| COc1ccc2c(c1)/C(=C\c1cccc(/C=C3/C(=O)Nc4ccc(OC)cc43)n1)C(=O)N2 [MLS002702497-01] | 0.8414 | 0.749 | 0.7692 | 0.7814 | 0.4567 | 0.3839 | 0.8643 | 2.6344 | 3.6076 | 0.2593 | 0.2779 | 0.7804 | 0.5545 | 0.175 | 0.1888 | 0.05588 | 0.04886 | 1.1181 | 2.2829 | 7.0726 | CMV-LACZ in Myoblasts, value relative to DMSO ([2]; 1 uM): 1.0213; CMV-LACZ in Myotubes, value relative to DMSO ([4]; 10 uM): 6.3598; CMV-LACZ in Myotubes, value relative to DMSO ([4]; 20 uM): 0.6520; CMV-LACZ in Myotubes, value relative to DMSO ([4]; 40 uM): 0.6550 |
| O=Nc1c(-c2c(O)[nH]c3ccccc23)[nH]c2ccccc12 [NCGC00015545-02] | 0.913 | 0.9118 | 0.6921 | 0.5516 | 0.4959 | 0.3519 | 1.0179 | 0.9440 | 0.8475 | 0.2907 | 0.2480 | 1.175 | 1.325 | 0.596 | 0.319 | 0.3086 | 0.1824 | 0.8627 | 0.9536 | 0.7586 | CMV-LACZ in Myotubes, value relative to DMSO ([4]; 10 uM): 0.5058; CMV-LACZ in Myotubes, value relative to DMSO ([4]; 20 uM): 0.5490; CMV-LACZ in Myotubes, value relative to DMSO ([4]; 40 uM): 0.4770 |
| O=Nc1c(-c2c(O)[nH]c3ccccc23)[nH]c2ccccc12 [NCGC00015545-07] | 1.126 | 1.08 | 0.8721 | 0.7457 | 0.6654 | 0.4975 | 1.2967 | 0.7896 | 0.8603 | 0.5257 | 0.3383 | 1.073 | 1.12 | 0.8463 | 0.568 | 0.3068 | 0.242 | 1.0736 | 1.1036 | 0.9434 | CMV-LACZ in Myoblasts, value relative to DMSO ([2]; 1 uM): 1.1950; CMV-LACZ in Myotubes, value relative to DMSO ([4]; 10 uM): 0.8393; CMV-LACZ in Myotubes, value relative to DMSO ([4]; 20 uM): 0.7010; CMV-LACZ in Myotubes, value relative to DMSO ([4]; 40 uM): 0.5470 |

— patent US9980943B2, “Methods of treating muscular dystrophy” (BOARD OF REGENTS OF THE NEVADA SYSTEM OF HIGHER EDUCATION, …, priority 2013, dated 2018)
